From patent US12642796B2, “Method and device of treating chronic kidney disease-associated pruritus” (Avior, Inc., priority 2018, dated 2026)
Values joined by “and” are separate entries in the source; they are usually repeats but may differ in a detail not shown here. Identical values can stand only once.

Key:
Assay type in all cases: in vivo, mouse
[1] = tested on: C57BL/6 mice; assay: SP and nalmefene injection, scratches Groups 10-12, 0-60 minutes (Example 3)
Description: Fifteen male C57BL/6 mice received a single intradermal (ID) bolus injection of substance P (SP) or PBS. Group 10 (N=6) received a single 50 μL injection of PBS. Group 11 (N=4) received SP in PBS at a dose of 0.5 mM/50 μl. […] Scratching behavior was video recorded and assessed.
Groups 10 and 11: All mice were placed in a clear cylindrical enclosure 60 minutes prior to testing to acclimate. An ID bolus injection of SP in PBS was administered. Recording began immediately following injection of SP and recorded for 60 minutes.
Group 12: All mice were placed in clear cylinder enclosures for 60 minutes prior to testing to acclimate. A SC bolus injection of nalmefene was administered. 30 minutes after the nalmefene injection, an ID bolus injection of SP in PBS was administered. Recording began immediately following injection of SP and recorded for 60 minutes.
Animals in Groups 10-12 were acclimated for 1 hour prior to recording. Behavioral recording lasted for 60 minutes (T0-T60). 6 animals were dosed for Group 12 but only 5 animals were tested due to one animal being excluded as an outlier due to no response to SP injection.
The number of scratches per 10-minute time interval for Groups 10-12 is given below in Table 3. The data is also shown graphically in FIG. 4.
The number of scratches per 0-30 minute and 30-60 minute time intervals is given below in Table 4 for Group 10 (PBS), Group 11 (0.5 mM SP), and Group 12 (0.75 mg nalmefene). The data is also shown graphically in FIG. 5.

[2] = tested on: C57BL mice; assay: Effect of nalmefene on SP-induced scratching behavior (Example 2); conditions: nalmefene SC 1 hour prior to SP ID 33.7 μg; 30 and 60 minutes after SP, FIG. 3
Description: Scratching behavior was monitored for 30 and 60 minutes after SP injection. Controls included mice that received PBS instead of SP (N=6, Group 5) and mice that received a placebo dose of PBS and ID dose of SP (N=4, Group 6).

[3] = tested on: C57BL/6 mice; assay: Dose escalation of SP, mean scratch count (Example 4)
Description: The SP dose administered to male C57BL/6 mice was escalated and itching was recorded for analysis. Group 13 (N=8) received ID injection of 135 μg SP on the right side of the rostral back. Group 14 (N=8) received ID injection of 233 μg SP on the right side of the rostral back. At T0-60, immediately following dose administration, a camera began recording to monitor itching behavior. At T60, the final itching assessment was completed, camera recording ended, and the study was concluded.
The recordings were reviewed to calculate itching behavior. Two research associates reviewed the recordings and counted the number of scratches for each mouse during the 60-minute collection time. The mean of the two observations were recorded as the number of scratches per 60 minutes.
The scratching over time was observed per 10 minute time period for each animal tested. The data is set forth below in Table 6 and is shown graphically in FIG. 6.

[4] = tested on: C57BL mice; assay: SP injection, scratches Groups 7-9, 0-30 minutes (Example 3)
Description: […] […] Group 9 (N=4) received SP in PBS at a dose of 0.5 mM/50 μL. Various scratching behavior was video recorded and assessed.
Group 7: All mice were placed in a clear cylindrical enclosure 30 minutes prior to testing to acclimate. An ID bolus injection of SP in sodium acetate was administered.
Groups 8 and 9: All mice were placed in a clear cylindrical enclosure 30 minutes prior to testing to acclimate. An ID bolus injection of SP in PBS was administered. Recording began immediately following injection of SP and recorded for 30 minutes.
Animals in Groups 7-9 were acclimated for […] prior to recording. Behavioral recording lasted for 30 minutes (T0-T30).
The number of scratches per 0-30 minutes for Groups 7-9 is given below in Table 2. The numbers for Groups 7 and 8 were averaged together.

[5] = tested on: C57BL mice; assay: Intradermal injection of SP in mice, scratching behavior at the injection site (Example 1)
Description: The method of treatment of pruritus was established using C57BL mice where substance P (SP) induced pruritus was created to induce the disease state.
Healthy male C57BL/6 mice ˜6-8 weeks of age and ranging from 21.2 to 26.8 grams in weight at study initiation were used in the Examples. The mice were acclimated for a minimum of 5 days prior to the beginning of the study. The mice were identified by tail mark and cage label. The study was not blinded. Mice were fed species-specific food, and food and water were supplied ad libitum to the animals.
Male C57BL mice were given an intradermal (ID) injection of 0.0168 μg of SP (N=4, Group 1) or PBS (N=2, Group 2) on either the right side only or on both sides. Scratching behavior at the injection site was monitored for 30 minutes from time of injection by two separate observers.
The original dose of 0.0168 μg SP (Group 1) was compared to a higher dose of 33.7 μg SP (N=4, Group 3). […] It was therefore concluded that the scratching behavior was a direct response to the presence and amount of SP.

[6] = Group 12, Nalmefene 0.75 mg SC before SP 0.5 mM ID, 0-30 min
[7] = Group 12, Nalmefene 0.75 mg SC before SP 0.5 mM ID, 30-60 min
[8] = Group 12, nalmefene 0.075 mg/75 μL SC 30 min prior to SP 0.5 mM/50 μL ID, 0-10 min
[9] = Group 12, nalmefene 0.075 mg/75 μL SC 30 min prior to SP 0.5 mM/50 μL ID, 10-20 min
[10] = Group 12, nalmefene 0.075 mg/75 μL SC 30 min prior to SP 0.5 mM/50 μL ID, 20-30 min
[11] = Group 12, nalmefene 0.075 mg/75 μL SC 30 min prior to SP 0.5 mM/50 μL ID, 30-40 min
[12] = Group 12, nalmefene 0.075 mg/75 μL SC 30 min prior to SP 0.5 mM/50 μL ID, 40-50 min
[13] = Group 12, nalmefene 0.075 mg/75 μL SC 30 min prior to SP 0.5 mM/50 μL ID, 50-60 min
[14] = Group 13, 135 μg SP ID, 0-10 min
[15] = Group 13, 135 μg SP ID, 10-20 min
[16] = Group 13, 135 μg SP ID, 20-30 min
[17] = Group 13, 135 μg SP ID, 30-40 min
[18] = Group 13, 135 μg SP ID, 40-50 min
[19] = Group 13, 135 μg SP ID, 50-60 min
[20] = Group 14, 233 μg SP ID, 0-10 min
[21] = Group 14, 233 μg SP ID, 10-20 min
[22] = Group 14, 233 μg SP ID, 20-30 min
[23] = Group 14, 233 μg SP ID, 30-40 min
[24] = Group 14, 233 μg SP ID, 40-50 min
[25] = Group 14, 233 μg SP ID, 50-60 min
[26] = Group 11, SP 0.5 mM/50 μL ID, 0-10 min
[27] = Group 11, SP 0.5 mM/50 μL ID, 10-20 min
[28] = Group 11, SP 0.5 mM/50 μL ID, 20-30 min
[29] = Group 11, SP 0.5 mM/50 μL ID, 30-40 min
[30] = Group 11, SP 0.5 mM/50 μL ID, 40-50 min
[31] = Group 11, SP 0.5 mM/50 μL ID, 50-60 min
[32] = 250 mM SP ID, Groups 7 and 8 averaged together

## C=C1CC[C@@]2(O)[C@H]3Cc4ccc(O)c5c4[C@@]2(CCN3CC2CC2)[C@H]1O5 [Nalmefene, 6-methylene-6-deoxy-N-cyclopropylmethyl-14 hydroxydihydronormorphine]
[1]; [6]
  Scratches, Avg.: 8.6
  Scratches, individual animals: 10 and 29 and 0 (2×) and 4
[1]; [7]
  Scratches, Avg.: 2.9
  Scratches, individual animals: 1 and 5 and 0 (2×) and 8.5
[1]; [8]
  Scratches, Avg.: 2
  Scratches, individual animals: 10 and 0 (4×)
[1]; [9]
  Scratches, Avg.: 3
  Scratches, individual animals: 0 (3×) and 13 and 2
[1]; [10]
  Scratches, Avg.: 3.6
  Scratches, individual animals: 0 (3×) and 16 and 2
[1]; [11]
  Scratches, Avg.: 1
  Scratches, individual animals: 0 (4×) and 5
[1]; [12]
  Scratches, Avg.: 1.8
  Scratches, individual animals: 0.5 and 5 and 0 (2×) and 3.5
[1]; [13]
  Scratches, Avg.: 0.1
  Scratches, individual animals: 0.5 and 0 (4×)
[1]; Group 12 vs Groups 10 and 11, 0-60 min
  ability to control scratching behavior, and by extension pruritus: maintained over the hour
[2]
  pruritogenic response to SP: completely mitigated

## SP: neuropeptide that plays a role in the induction and maintenance of pruritus; injected intradermally to induce scratching
[3]; [14]
  Mean Scratch Count, Avg.: 56.75
  Mean Scratch Count, individual animals: 127 and 58 and 5.5 and 22 and 57 and 21.5 and 91 and 72
[3]; [15]
  Mean Scratch Count, Avg.: 26.44
  Mean Scratch Count, individual animals: 53.5 and 41.5 and 0 and 7 and 36 and 23 and 41 and 9.5
[3]; [16]
  Mean Scratch Count, Avg.: 8.88
  Mean Scratch Count, individual animals: 0 (2×) and 4 and 7 and 2 and 12.5 and 22.5 and 23
[3]; [17]
  Mean Scratch Count, Avg.: 3.69
  Mean Scratch Count, individual animals: 0 (4×) and 15 and 0.5 and 12 and 2
[3]; [18]
  Mean Scratch Count, Avg.: 1.06
  Mean Scratch Count, individual animals: 0 (6×) and 5 and 3.5
[3]; [19]
  Mean Scratch Count, Avg.: 0.31
  Mean Scratch Count, individual animals: 0 (6×) and 2 and 0.5
[3]; [20]
  Mean Scratch Count, Avg.: 89.88
  Mean Scratch Count, individual animals: 123 and 131.5 and 108 and 85.5 and 8 and 33 and 145 and 85
[3]; [21]
  Mean Scratch Count, Avg.: 30.06
  Mean Scratch Count, individual animals: 56.5 and 32 and 42 and 33 and 6 and 9 and 35 and 27
[3]; [22]
  Mean Scratch Count, Avg.: 13.94
  Mean Scratch Count, individual animals: 7 and 6 and 27 and 21.5 and 5 and 10.5 and 16 and 18.5
[3]; [23]
  Mean Scratch Count, Avg.: 5.19
  Mean Scratch Count, individual animals: 0 (2×) and 3 and 5 (2×) and 16.5 and 8 and 4
[3]; [24]
  Mean Scratch Count, Avg.: 3.56
  Mean Scratch Count, individual animals: 3 and 0 (3×) and 4 and 7.5 and 1 and 13
[3]; [25]
  Mean Scratch Count, Avg.: 6.31
  Mean Scratch Count, individual animals: 8 and 0 (2×) and 2 and 33 and 1 (2×) and 5.5
[1]; Group 11, SP 0.5 mM, 0-30 min
  Scratches, Avg.: 87.5
  Scratches, individual animals: 119 and 67 and 94.5 and 69.5
[1]; Group 11, SP 0.5 mM, 30-60 min
  Scratches, Avg.: 8.38
  Scratches, individual animals: 19.5 and 5.5 and 2.5 and 6
[1]; [26]
  Scratches, Avg.: 53.75
  Scratches, individual animals: 57.5 and 66 and 49 and 42.5
[1]; [27]
  Scratches, Avg.: 28
  Scratches, individual animals: 41.5 and 1 and 45 and 24.5
[1]; [28]
  Scratches, Avg.: 5.75
  Scratches, individual animals: 20 and 0 and 0.5 and 2.5
[1]; [29]
  Scratches, Avg.: 6
  Scratches, individual animals: 15.5 and 0 and 2.5 and 6
[1]; [30]
  Scratches, Avg.: 0
  Scratches, individual animals: 0
[1]; [31]
  Scratches, Avg.: 2.38
  Scratches, individual animals: 4 and 5.5 and 0 (2×)
[4]; [32]
  Scratches, Facial, Avg.: 110
  Scratches, Facial, individual animals: 110 and 139 and 137 and 54
  Scratches, Left Side, Avg.: 39
  Scratches, Left Side, individual animals: 1 and 69 and 4 and 82
  Scratches, Other, Avg.: 38
  Scratches, Other, individual animals: 38 and 45 and 43 and 26
  Scratches, Rt. Side, Avg.: 12.5
  Scratches, Rt. Side, individual animals: 0 and 36 and 4 and 10
[4]; SP 0.5 mM ID (Group 9)
  Scratches, Facial, Avg.: 29.75
  Scratches, Facial, individual animals: 5 and 20 and 48 and 46
  Scratches, Left Side, Avg.: 12
  Scratches, Left Side, individual animals: 15 and 22 and 11 and 0
  Scratches, Other, Avg.: 21
  Scratches, Other, individual animals: 7 and 27 and 35 and 15
  Scratches, Rt. Side, Avg.: 16.75
  Scratches, Rt. Side, individual animals: 28 and 7 and 13 and 19
[5]; 0.0168 μg SP ID vs PBS-injected mice, 30 minutes from injection, FIG. 2a
  local site scratching behavior: more frequent
[5]; 33.7 μg SP vs 0.0168 μg SP, FIG. 2b
  scratching in mice, higher vs lower SP dose: increased scratching
